Assay results from patent US20230355500A1, “TOPICAL COMPOSITION” (LILIGER LTD, priority 2021, published 2023).
One block for each molecule: values may come before it.

Tests used:
skin = experiment: Concentration needed for skin effect, judged by redness, swelling, tingling and burning sensation; assay type: in vivo, human
Procedure: The concentration of the NO-donor in the topical composition of the present invention is determined by the amount that is sufficient to elevate the level of NO in the skin, upon topical application of the composition. Since measuring NO levels in humans is impractical, such elevation can be observed by the appearance of skin redness (erythema), swelling (oedema) a tingling sensation and a burning sensation, which is intensified as the concentration goes up. Furthermore, the occurrence of elevated NO can be noticed by its desirable cosmetic outcomes such as enhanced radiance and reduction of wrinkles.
For example, in the case of nitroglycerine, 2% is insufficient. At higher concentrations, from about 4%, a slight burning sensation is noticed. This sensation intensifies as the nitroglycerine concentration increases. Thus, in certain embodiments, the concentration of nitroglycerine as NO-donor is between about 4% - about 12%; and in other embodiments it can be from about 4%-8%, or from about 8%-12%.
In the case of arginine, 5% is insufficient. At higher concentrations, from about 6%, a slight burning sensation is noticed, and it is associated with a tingling sensation. This sensation intensifies as the arginine concentration increases. Thus, in certain embodiments, the concentration of arginine as NO-donor is at least about 6%. For example, between about 6% and about 25%. In other embodiments, the concentration of arginine can be from about 6% to about 8%, or from about 8% to about 10%, or from about 10% to about 14%, or from about 14% to about 18%, or from about 18% to about 25%, or from about 8% to about 25%, or from about 6% to about 12%, or from about 8% to about 12%, or from about 8% to about 10%.
The concentration of the counter-NO agent is determined so that the skin redness (erythema), swelling (oedema) and burning sensation, induced by the NO-donor is decreased or eliminated. For example, in certain cases, where the counter-NO agent is nicotinamide, 0.5% is insufficient. […]

stratum corneum = conditions: patients with atopic dermatitis, topical treatment; cited from earlier work
ageing skin = experiment: Treatment of ageing skin, study #2: day cream used for 28 days, unguided free-form feedback; assay type: in vivo, human; conditions: addition of nicotinamide to the arginine cream
Description: Objectives: To determine the impact of Composition #1 on middle-aged women after 28 days of continuous use. […] They were asked to use the cream daily for 28 days and to provide unguided input (free form) Results: 13 of the 20 women provided feedback that was summarized in the table below.

SMILES: N=C(N)NCCC[C@H](N)C(=O)O [arginine, L-arginine]
Sufficiency of the concentration as NO-donor (skin; 5% in the topical composition): insufficient
Concentration from which a slight burning sensation is noticed (skin; human, in vivo): at least 6%

SMILES: Cl.N=C(N)NCCC[C@H](N)C(=O)O [arginine hydrochloride]
Clinical symptoms of dry skin (stratum corneum): improvement
Skin moisture (stratum corneum): increase
Urea in the stratum corneum (stratum corneum): significantly increase

Previous issues (Study #1) of burning sensation and over-tingling (ageing skin): solved
SMILES: NC(=O)c1cccnc1 [nicotinamide]
Sufficiency of the concentration as counter-NO agent (to decrease redness, swelling and burning sensation) (skin; 0.5% in the topical composition, in certain cases): insufficient
